{"source": "paper PMC9274004", "about": "“Deciphering the Molecular Interaction Between the Adhesion G Protein-Coupled Receptor ADGRV1 and its PDZ-Containing Regulator PDZD7” (Frontiers in Molecular Biosciences, 2022)", "key": {"PDZD7 PDZ1ext G103R": {"target": "T1, PDZD7 PDZ1ext G103R (Mus musculus, UniProt E9Q9W7, G103R)", "T1 construct": "PDZ1 (81-167), PDZ1ext (81-192); GST (followed by TEV site) (N, cleaved yes); made in house; host or cells: E. coli BL21 DE3", "T1 sequence (E9Q9W7 81-192 G103R)": "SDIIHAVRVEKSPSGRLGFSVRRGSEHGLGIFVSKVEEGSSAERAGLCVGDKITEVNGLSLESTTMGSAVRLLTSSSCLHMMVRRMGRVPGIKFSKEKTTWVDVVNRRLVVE", "experiment": "NMR titration of PDZ1ext G103R", "assay_type": "binding, murine", "conditions": "Tris HCl pH 7.5 (50 mM), 25°C", "protocol": "All experiments were recorded at 25°C on a Bruker 800 MHz spectrometer equipped with a triple resonance ^1H{^13C/^15N} cryoprobe. The ^1H, ^15 N and ^13C backbone resonances assignment of PDZ1ext was carried out using 3D HNCA, HNCACB, HNCO, HNCOCA experiments (Tris HCl buffer adjusted to pH 6). The 2D ^1H-^15N HSQC spectra used to compare PDZ1, PDZ1ext, PDZ2 and PDZ2ext were recorded in Tris HCl pH 7.5 (50 mM). The 2D ^1H-^15N HSQC spectra used to compare PDZ1ext, PDZ2ext and P1P2 were recorded in Phosphate Buffer pH 6.5 (50 mM). Titration experiments of PDZ1 (WT), PDZ1ext (WT) and PDZ1ext (G103R) against ADGRV1pbm peptide were performed in Tris HCl pH 7.5 (50 mM). Averaged Chemical Shifts Perturbations (CSP) were calculated as: Δδavg = ((Δδ(^1H))^2+(Δδ(^15N)*0.159)^2)^½. […]\nWe characterized the potential effect of the two substitutions on the interaction with ADGRV1pbm using a panel of techniques. First, we confirmed by NMR that PDZ1ext G103R is well-folded, with significant perturbations (CSPs >0.04 ppm) only detected for residues spatially close to the G103R mutation (Supplementary Figure S10). […] We calculated Rg = 28 Å and Dmax = 118.2 Å for the mutant tandem without ligand, and Rg = 27.7 Å and Dmax = 123.6 Å in presence of ADGRV1pbm peptide. […]"}, "PDZD7 P1P2 G103R": {"target": "T2, PDZD7 P1P2 G103R (Mus musculus, UniProt E9Q9W7, G103R)", "T2 construct": "PDZ2ext (206-313), P1P2 (81-313); GST (followed by TEV site) (N, cleaved yes); made in house; host or cells: E. coli BL21 DE3", "T2 sequence (E9Q9W7 81-313 G103R)": "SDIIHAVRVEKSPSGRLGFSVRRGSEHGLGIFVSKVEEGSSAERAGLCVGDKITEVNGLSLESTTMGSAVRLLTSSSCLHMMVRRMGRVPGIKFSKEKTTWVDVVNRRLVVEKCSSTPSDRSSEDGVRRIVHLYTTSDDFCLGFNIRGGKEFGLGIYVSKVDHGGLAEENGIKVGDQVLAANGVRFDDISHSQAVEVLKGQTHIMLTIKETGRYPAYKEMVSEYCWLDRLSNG", "experiment": "Fluorescence titration of P1P2 G103R", "assay_type": "binding, murine", "protocol": "Fluorescence titrations were performed on a Jasco V-730 spectrometer using quartz cell 109.004F-QS (Hellma Analytics) with an optical path of 10 mm and with thick side to reduce the inner filter effect. PDZ1ext and P1P2 were prepared in Phosphate Buffer pH 6.6 (50 mM) at 6 and 2 µM respectively, while PDZ2ext was prepared in Tris HCl pH 7.5 (50 mM) at 5 µM. Variations in the quantum yield of fluorescence of tryptophans from the sample were monitored upon progressive addition of buffered ADGRV1pbm peptide. After peptide addition, the sample is homogenized by in-spectrometer magnet agitation for 30 s. The sample is left to rest for an additional 60 s before measurement. Excitation is set at 295 nm and fluorescence was measured at the maximum emission wavelength (346-349 nm) of the unbound form with a 5 nm bandwidth for both. Titration curves were fitted using the following formula: y = Fp∗p0+(Fx-Fp)∗0.5∗(R∗I0+(1-R)∗x + K-((R∗I0+(1-R)∗x + K)^2-4∗R∗(I0-x)∗x)^1/2), where p0 is the initial protein concentration, I0 the peptide stock concentration, R the p0/I0 ratio, x the volume of added peptide in µl, Fp the fluorescence of PDZ constructs, Fx the fluorescence of the complex, and K the Kd. The values of p0, I0 and R are kept constant.\nWe characterized the potential effect of the two substitutions on the interaction with ADGRV1pbm using a panel of techniques. […]"}}, "note": "Where no end group is shown, it is not given here.", "data": [{"sequence": "VELRRIPIADTHL [ADGRV1pbm]", "values": [{"measurement": "Kd", "setting": "PDZD7 PDZ1ext G103R", "value": 1190, "unit": "µM"}, {"measurement": "Kd", "setting": "PDZD7 P1P2 G103R", "value": "1.9 ± 0.4", "unit": "µM"}]}]}
